The values that follow come from paper PMC9502403, “Saquayamycin B1 Suppresses Proliferation, Invasion, and Migration by Inhibiting PI3K/AKT Signaling Pathway in Human Colorectal Cancer Cells” (Marine Drugs, 2022).

Assay [1] has as its system SW480 cells. Kind of assay: MTT cytotoxicity assay, SW480. To be noted: Homo sapiens, 48 h, mean ± SD. The class given is cell-based. The procedure:
(§1) Human CRC cell lines SW480 (BeNa Culture Collection, Xinyang, China), SW620 (Procell Life Science & Technology Co., Ltd., Wuhan, China), and HT-29 (Zhong Qiao Xin Zhou Biotechnology Co., Ltd., Shanghai, China) were cultured in RPMI 1640 Medium (Livning Biotechnology Co., Ltd., Beijing, China), LoVo cells (Zhong Qiao Xin Zhou Biotechnology Co., Ltd., Shanghai, China) were cultured in DMEM/F12 (Livning Biotechnology Co., Ltd., Beijing, China), and normal human liver cell line QSG-7701 (Beyotime Institute of Biotechnology, Shanghai, China) was cultured in DMEM/high glucose (Livning Biotechnology Co., Ltd., Beijing, China) containing 10% fetal bovine serum (FBS) (Gibco Life Technologies, San Jose, CA, USA). The cells were cultured in a constant temperature incubator at 37 °C, 5% CO2.
(§2) The cytotoxicity of Mor B, Saq B1, Saq B, and Lan N on CRC and the normal human liver cells was detected by MTT (3-(4,5-dimethylthiazol)-2,5-diphenyltetrazolium bromide) assay (Sigma-Aldrich Corp., St. Louis, MO, USA). Cells were evenly distributed in 96-well plates overnight and then treated with Mor B, Saq B1, Saq B, and Lan N at different concentrations for 48 h. The negative control group was treated with the same concentration of DMSO. After treatment, 10 μL of the 5 mg/mL MTT solution was added to each well in the incubator for 4 h. Then, the MTT solution was removed and 150 μL DMSO was added into each hole to dissolve the purple crystal. The absorbance of each well was read at 570 nm with a microplate reader, and the IC50 values were calculated using the software. Each sample was measured three times independently.

The test system of assay [2] is SW620 cells. Nature of the assay: MTT cytotoxicity assay, SW620. The class given is cell-based. To be noted: Homo sapiens, SW-620, 48 h, mean ± SD. The procedure: as §1, §2
A general note: Tetrazolium assays rely on reduction of a dye to a coloured formazan, in cell work by metabolically active cells.

Assay [3] relates to LoVo cells. Nature of the assay: MTT cytotoxicity assay, LoVo. To be noted: Homo sapiens, 48 h, mean ± SD. The class given is cell-based. The procedure: as §1, §2
Assay [4] relates to HT-29 cells. Kind of assay: MTT cytotoxicity assay, HT-29. The following applies: Homo sapiens, 48 h, mean ± SD. The class given is cell-based. The procedure: as §1, §2
Assay [5] relates to QSG-7701 cells. Kind of assay: MTT cytotoxicity assay, QSG-7701 normal liver cells. In kind it is cell-based. To be noted: QSG7701, 48 h, normal human liver cells, mean ± SD. The procedure: as §1, §2
For assay [6], the system named is CRC cells. Kind of assay: MTT cytotoxicity assay, CRC cells (range over lines). To be noted: Homo sapiens, range over SW480, SW620, LoVo, HT-29. In kind it is cell-based. The procedure:
as §1
The cytotoxicity of Mor B, Saq B1, Saq B, and Lan N on CRC and the normal human liver cells was detected by MTT (3-(4,5-dimethylthiazol)-2,5-diphenyltetrazolium bromide) assay (Sigma-Aldrich Corp., St. Louis, MO, USA). Cells were evenly distributed in 96-well plates overnight and then treated with Mor B, Saq B1, Saq B, and Lan N at different concentrations for 48 h. […] The absorbance of each well was read at 570 nm with a microplate reader, and the IC50 values were calculated using the software. Each sample was measured three times independently.

Assay [7] has as its system SW480 cells. Nature of the assay: Annexin V-FITC/PI flow cytometry of apoptosis, SW480. In kind it is cell-based, human. The text has this:
(§3) Annexin V-FITC and Propidium Iodide (PI) apoptosis-detection kits were used to determine the specific proportion of apoptotic cells. Annexin V-FITC is used to detect phosphatidylserine, which moves from the inside of the membrane to the surface of the cell membrane during apoptosis, producing green fluorescence. Late apoptotic cells whose cell membrane integrity is destroyed can be stained with PI, producing red fluorescence.
(§4) An Annexin V-FITC apoptosis detection kit was used to detect cell apoptosis by flow cytometry after staining. The cells were placed in 6-well plates and digested by trypsin (Solarbio, Beijing, China) after Saq B1 treatment. Then, the cells were washed with PBS and centrifuged for 5 min, and the supernatant was discarded. Annexin V-FITC binding buffer was added to gently suspend the cells. Annexin V-FITC and PI were successively added and slowly mixed. Apoptosis was immediately assessed by flow cytometry (Becton, Dickinson and Company, San Jose, CA, USA). Each sample was measured three times.
For orientation: In flow cytometry, cells or beads pass a laser one at a time.

Assay [8] concerns SW620 cells. Nature of the assay: Annexin V-FITC/PI flow cytometry of apoptosis, SW620. In kind it is cell-based, human.
Excerpt: as §3, §4

In assay [9] the test system is PI3K/AKT pathway. Nature of the assay: Western blot of PI3K, AKT, p-AKT. To be noted: SW480 and SW620 cells, 0.1 μM, 0.2 μM, and 0.3 μM. In kind it is cell-based, human. The procedure:
(§5) Western blotting was used to reveal changes in the expression of specific proteins after Saq B1 treatment. The cells treated with varying doses of Saq B1 were lysed with RIPA buffer (Beyotime Biotech, Shanghai, China) to obtain total protein, which was quantified using a BCA kit. The proteins with different molecular weights were separated by SDS-PAGE electrophoresis. The protein was transferred to a PVDF membrane and sealed with 5% skim milk for 1 h. After washing with TBS-T buffer, the respective primary antibodies were added to the membrane and incubated at 4 °C overnight. Next, the PVDF membrane was washed with TBS-T buffer three times and incubated with antimouse IgG or antirabbit IgG secondary antibody (CST, Inc., Beverly, MA, USA) for 1 h at room temperature. Proteins on the membranes were visualized using the enhanced chemiluminescence detection kit (ECL®, Amersham Biosciences, Little Chalfont, UK).
On the technique in general: A western blot detects proteins with antibodies after separation by electrophoresis.

Assay [10] has as its system Bax/Bcl-2. Kind of assay: Western blot of Bax and Bcl-2. The class given is cell-based, human. To be noted: SW480 and SW620 cells. The procedure: as §5
The subject of assay [11] is SW480 cells. Nature of the assay: Colony formation assay. The class given is cell-based, human. The following applies: SW480, with increasing concentration, 14 days. From the text:
The cell colony formation assay is an important technique for detecting cell proliferation, invasiveness, and drug sensitivity. After digestion of trypsin in the logarithmic growth phase, the cells were inoculated on 6-well plates at a density of 700 cells/well. The medium was refreshed every 3 days and treatment continued for 14 days. Finally, the colonies were fixed with 4% paraformaldehyde and stained with crystal violet. Colonies with >50 cells were counted and photographed.

Assay [12] deals with SW480 cells. Kind of assay: Wound-healing assay. The class given is cell-based, human. The following applies: SW480, with increasing dose, 48 h. The procedure: To determine the migratory ability of cells in vitro, we adopted the cell scratch test. Cells were placed in a 6-well plate at a density of 5 × 10^4 cells per well. When the cells had adhered to 90% of each well, we made equal-width scratches at the same position in each hole with sterile micropipette tips. Each well was washed three times with PBS to remove suspended cells. The cells in the well were treated with different concentrations of Saq B1. The wound-healing rate (%) = (1 − (the width of the assay group/the width of the control group)) × 100% was calculated according to the width of the scratches in each group to evaluate the migratory ability of the cells. Each sample was measured three times.

Assay [13] concerns SW480 cells. Nature of the assay: Transwell migration and invasion assay. In kind it is cell-based, human. The procedure: The transwell assay is used to test the ability of cells to invade and metastasize. In the invasion assay, we placed transwell chambers in a 24-well plate, and cells were suspended in 200 μL serum-free medium at the density of 1 × 10^5 cells/mL. Then, cells were added to an upper chamber containing Matrigel, while 700 μL of the medium containing 20% FBS as a chemo-attractant was added to the lower chamber. The cells were treated with various doses of Saq B1 and incubated with 5% CO2 at 37 °C. Thereafter, all media were discarded, and the cells in the lower chamber were fixed in 4% paraformaldehyde for 20 min and placed in 0.5% crystal violet dye for 20 min. After washing the cells with PBS three times, five regions were selected randomly under the microscope, pictures were taken, and the number of transmembrane cells was counted. The migration assay followed the same procedure as the invasion assay but without Matrigel. Each sample was evaluated independently three times.

Assay [14] has as its system E-cadherin, N-cadherin, and vimentin. Nature of the assay: Western blot of EMT markers. The following applies: SW480 and SW620 cells, 0–0.3 μmol/L. In kind it is cell-based, human. The procedure: as §5

What is called IC50 is the concentration that inhibits the measured activity by half.

SMILES strings stand for the structures.

With `COc1cccc2c1C(=O)c1c(O)c3c(c(O)c1C2=O)C[C@@](O)(C(=O)CO)C[C@@H]3O[C@H]1C[C@H](N)[C@H](O)[C@H](C)O1` [Doxorubicin, reference compound], the IC50 stood at 910 ± 80 nM in assay [1]; 1060 ± 110 nM in [2]; 830 ± 120 nM in assay [3]; 1020 ± 100 nM in assay [4]; 1330 ± 30 nM in assay [5].

As for `Cc1cc(O)c2c3c(cc(O)c2c1)C(=O)c1c(ccc([C@H]2C[C@H]4O[C@H]5CC(=O)[C@H](C)O[C@H]5O[C@@H]4[C@@H](C)O2)c1O)C3=O` [Landomycin N], the IC50 in [1], in assay [2], in [3], in [4] and in assay [5] was above 20000 nM each time.

With `C[C@@H]1O[C@H]2O[C@@H]3[C@@H](C)O[C@@H](c4ccc5c(c4O)C(=O)c4ccc6c(c4C5=O)C(=O)C[C@](C)(O)C6)C[C@H]3O[C@H]2CC1=O` [Moromycin B], the IC50 is 450 ± 60 nM in [1]; 340 ± 50 nM in [2]; 780 ± 20 nM in [3]; 820 ± 40 nM in assay [4]; 1260 ± 150 nM in [5].

On to `C[C@@H]1O[C@H]2O[C@@H]3[C@@H](C)O[C@@H](c4ccc5c(c4O)C(=O)C4=C(C5=O)[C@@]5(O)C(=O)C[C@](C)(O)C[C@@]5(O)C=C4)C[C@H]3O[C@H]2CC1=O` [Saquayamycin B1], for which the IC50 in assay [1] is 180 ± 10 nM; in assay [2], 260 ± 30 nM; in assay [3] it was 630 ± 70 nM; in [4], 840 ± 50 nM; in assay [5], 1570 ± 120 nM; in [6], 180 to 840 nM. In addition, the apoptosis rate in assay [7] (SW480, Saq B1 0.1 μM) amounted to 24.31%; in assay [7] (SW480, Saq B1 0.2 μM), 30.75%; in [7] (SW480, Saq B1 0.3 μM), 40.12%; in assay [8] (SW620, Saq B1 0.1 μM), 8.11%; in assay [8] (SW620, Saq B1 0.2 μM), 12.67%; in assay [8] (SW620, Saq B1 0.3 μM), 30.69%. Also, in [9], the “protein expression level of AKT” value is “basically unchanged”. Moreover, the “protein expression level of PI3K” value in assay [9] is given as “decreased”. Besides, the “protein expression level of p-AKT” value in [9] is listed as “decreased”. Moreover, the “expression of Bax/Bcl-2” value in [10] was “increased”. The “size and number of cell clones” value in [11] is on record as “declined”. Also, the “wound-healing rate of cells” value in assay [12] is listed as “decreased gradually”. In addition, in assay [13], the “cellular migration and invasion” value was “dose-dependent inhibition”. The “expression of epithelial adhesion protein E-cadherin” value in assay [14] is “increased”. Further, in assay [14], the “expression of mesenchymal protein N-cadherin” value was “decreased”. For the same molecule, in [14], the “expression of mesenchymal protein vimentin” value is listed as “decreased”.

With `C[C@@H]1O[C@@H](O[C@H]2CC[C@H](O[C@@]3(C)CC(=O)[C@]4(O)C5=C(C=C[C@]4(O)C3)C(=O)c3c(ccc([C@H]4C[C@H]6O[C@H]7CC(=O)[C@H](C)O[C@H]7O[C@@H]6[C@@H](C)O4)c3O)C5=O)O[C@H]2C)C=CC1=O` [Saquayamycin B], the IC50 in [1] was determined as 320 ± 30 nM; in [2], 420 ± 20 nM; in assay [3], 750 ± 30 nM; in [4], 890 ± 20 nM; in assay [5] it was 1380 ± 140 nM.
